Reference: US20090143438A1, “Novel Pyridine Derivative Having Anti-Helicobacter Pylori Activity” (Arigen Pharmaceuticals, Inc., priority 2006, published 2009)
In brackets after ≈: the same amount, converted by molar mass.

Tests used:
[1] = system: Helicobacter pylori NCTC11637; settings: standard strain NCTC11637; data from Table 6 of JP-A No. 7-69888; cited from earlier work
[2] = system: Helicobacter pylori NCTC11916; settings: standard strain NCTC11916; data from Table 6 of JP-A No. 7-69888; cited from earlier work
H. pylori, ATCC 43504 = assay: Antibacterial power test, Columbia agar, MIC; format: cell-based, Helicobacter pylori; settings: Helicobacter pylori, ATCC43504, 72 h, 37° C., pH 7.0, 3 days, read on 4th day, read-out: MIC, in vitro anti-Helicobacter pylori activity
Procedure: An in vitro test was performed in a Columbia agar medium using a standard strain of H. pylori, ATCC 43504. […] Each of the test objects was dissolved in a 1% DMSO solution. Furthermore, as antibiotic control drugs, ampicillin from the penicillin family (control drug 1), gentamycin from the aminoglycoside family (control drug 2), tetracycline from the tetracycline family (control drug 3), and ofloxacin from the new quinolone family (control drug 4) were used.

H. pylori NCTC 11916 = assay: In vitro MIC test in Columbia agar, standard strain; format: cell-based, Helicobacter pylori; settings: Helicobacter pylori, NCTC11916, 72 h; standard strain NCTC 11916; 37° C., pH 7.0, 3 days
Procedure: (§1) An in vitro test was performed in a Columbia agar medium using standard strains of H. pylori, NCTC 11637 and 11916, clinical isolates PT#1045482, PT#1045483 and PT#1045484, and ofloxacin- and roxithromycin-resistant, clinical isolates TY2, 4 and 5. Each of the test objects was dissolved in a 1% DMSO solution. Furthermore, as antibiotic control drugs, roxithromycin from the macrolide family and ofloxacin from the new quinolone family were used. The strains were cultured at 37° C. and pH 7.0 for 3 days, and on the 4th day, the minimum inhibitory concentrations (MIC, μg/ml) were determined.

H. pylori NCTC 11637 = assay: as above; format: cell-based, Helicobacter pylori; settings: Helicobacter pylori, NCTC11637, 72 h; standard strain NCTC 11637; 37° C., pH 7.0, 3 days
Procedure: as §1

[3] = system: H. pylori ofloxacin- and roxithromycin-resistant clinical isolate TY4; assay: In vitro MIC test in Columbia agar, resistant clinical isolate; format: cell-based; settings: Helicobacter pylori, 72 h; resistant strain TY4; 37° C., pH 7.0, 3 days
Procedure: as §1

[4] = system: H. pylori ofloxacin- and roxithromycin-resistant clinical isolate TY2; assay: as above; format: cell-based; settings: Helicobacter pylori, 72 h; resistant strain TY2; 37° C., pH 7.0, 3 days
Procedure: as §1

[5] = system: H. pylori ofloxacin- and roxithromycin-resistant clinical isolate TY5; assay: as above; format: cell-based; settings: Helicobacter pylori, 72 h; resistant strain TY5; 37° C., pH 7.0, 3 days
Procedure: as §1

[6] = system: H. pylori clinical isolate PT#1045483; assay: In vitro MIC test in Columbia agar, clinical isolate; format: cell-based; settings: Helicobacter pylori, 72 h, 37° C., pH 7.0, 3 days
Procedure: as §1

[7] = system: H. pylori clinical isolate PT#1045482; assay: as above; format: cell-based; settings: Helicobacter pylori, 72 h, 37° C., pH 7.0, 3 days
Procedure: as §1

[8] = system: H. pylori clinical isolate PT#1045484; assay: as above; format: cell-based; settings: Helicobacter pylori, 72 h, 37° C., pH 7.0, 3 days
Procedure: as §1

[9] = system: Mycobacterium ranae (ATCC 110); assay: In vitro antibacterial test against various bacteria, MIC; format: cell-based; settings: ATCC110, 37° C., 20 to 48 hours, read-out: MIC
Procedure: (§2) An in vitro antibacterial test for the compounds of Examples 1 to 6 against various bacteria was performed. As gram-negative bacteria, Escherichia coli (ATCC 10536, ATCC 25922), Klebsiella pneumonia (ATCC 10031), Proteus vulgaris (ATCC 13315), Pseudomonas aeruginosa (ATCC 9027), Salmonella typhimurium (ATCC 13311), and as gram-positive bacteria, Staphylococcus aureus, MRSA (ATCC 33591), Staphylococcus epidermidis (ATCC 12228), Streptococcus pneumonia (ATCC 6301), Mycobacterium ranae (ATCC 110) and Enterococcus faecalis (VRE, ATCC 51575) were used. The various bacteria were cultured at 37° C. for 20 to 48 hours by conventional methods, and the minimum inhibitory concentrations (MIC, μg/ml) were determined. Each of the test objects were dissolved in a 1% DMSO solution. Furthermore, as an antibiotic control drug, gentamycin (GEM) from the aminoglycoside family was used.

[10] = system: Salmonella typhimurium (ATCC 13311); assay: as above; format: cell-based; settings: Salmonella enterica, 37° C., 20 to 48 hours, read-out: MIC
Procedure: as §2

[11] = system: Escherichia coli (ATCC 25922); assay: as above; format: cell-based; settings: ATCC25922, 37° C., 20 to 48 hours, read-out: MIC
Procedure: as §2

[12] = system: Pseudomonas aeruginosa (ATCC 9027); assay: as above; format: cell-based; settings: ATCC9027, 37° C., 20 to 48 hours, read-out: MIC
Procedure: as §2

[13] = system: Klebsiella pneumonia (ATCC 10031); assay: as above; format: cell-based; settings: Klebsiella pneumoniae, ATCC10031, 37° C., 20 to 48 hours, read-out: MIC
Procedure: as §2

[14] = system: Proteus vulgaris (ATCC 13315); assay: as above; format: cell-based; settings: ATCC13315, 37° C., 20 to 48 hours, read-out: MIC
Procedure: as §2

[15] = system: Staphylococcus aureus, MRSA (ATCC 33591); assay: as above; format: cell-based; settings: 37° C., 20 to 48 hours, read-out: MIC
Procedure: as §2

[16] = system: Staphylococcus epidermidis (ATCC 12228); assay: as above; format: cell-based; settings: ATCC12228, 37° C., 20 to 48 hours, read-out: MIC
Procedure: as §2

[17] = system: Escherichia coli (ATCC 10536); assay: as above; format: cell-based; settings: ATCC10536, 37° C., 20 to 48 hours, read-out: MIC
Procedure: as §2

[18] = system: Streptococcus pneumonia (ATCC 6301); assay: as above; format: cell-based; settings: Streptococcus pneumoniae, ATCC6301, 37° C., 20 to 48 hours
Procedure: as §2

[19] = system: Enterococcus faecalis (VRE, ATCC 51575); assay: as above; format: cell-based; settings: 37° C., 20 to 48 hours
Procedure: as §2

SMILES: COc1ccc2[nH]c([S+]([O-])Cc3ncc(C)c(OC)c3C)nc2c1 (stereo not drawn) [(a), 5-methoxy-2-(4-methoxy-3,5-dimethylpyridin-2-yl)methylsulfinyl-1H-benzimidazole]
- MIC [1]: 50 mg/L (≈ 145 µM)
- MIC [2]: 50 mg/L (≈ 145 µM)

SMILES: COc1ccc2[nH]c(SCc3ncc(C)c(OC)c3C)nc2c1 [(b), 5-methoxy-2-(4-methoxy-3,5-dimethylpyridin-2-yl)methylthio-1H-benzimidazole]
- MIC [1]: 12.5 mg/L (≈ 37.9 µM)
- MIC [2]: 12.5 mg/L (≈ 37.9 µM)

SMILES: Cc1c(OCC(F)(F)F)ccnc1C[S+]([O-])c1nc2ccccc2[nH]1 (stereo not drawn) [(c), 2-[3-methyl-4-(2,2,2-trifluoroethoxy)pyridine-2-yl]methylsulfinyl-1H-benzimidazole]
- MIC [1]: 6.25 mg/L (≈ 16.9 µM)
- MIC [2]: 12.5 mg/L (≈ 33.8 µM)

SMILES: Cc1c(OCC(F)(F)F)ccnc1CSc1nc2ccccc2[nH]1 [(d), 2-[3-methyl-4-(2,2,2-trifluoroethoxy)pyridine-2-yl]methylthio-1H-benzimidazole]
- MIC [1]: 1.56 mg/L (≈ 4.41 µM)
- MIC [2]: 1.56 mg/L (≈ 4.41 µM)

SMILES: COCCCOc1ccnc(C[S+]([O-])c2nc3ccccc3[nH]2)c1C.[Na] (stereo not drawn) [(e), 2-[4-(3-methoxypropoxy)-3-methylpyridin-2-yl]methylsulfinyl-1H-benzimidazole sodium salt]
- MIC [1]: 0.8 mg/L
- MIC [2]: 1.56 mg/L

SMILES: COCCCOc1ccnc(CSc2nc3ccccc3[nH]2)c1C [(f), 2-[4-(3-methoxypropoxy)-3-methylpyridin-2-yl]methylthio-1H-benzimidazole]
- MIC [1]: 0.8 mg/L (≈ 2.33 µM)
- MIC [2]: 1.56 mg/L (≈ 4.54 µM)

SMILES: Cc1c(OCCO)ccnc1CSc1nc2ccccc2[nH]1 [Comparative Compound 1, 2-[{4-(2-hydroxyethoxy)-3-methylpyridin-2-yl}methylthio]-1H-benzimidazole, reference compound]
- MIC (H. pylori, ATCC 43504): 10 mg/L (≈ 31.7 µM)

SMILES: Cc1c(OCCCO)ccnc1CSc1nc2ccccc2[nH]1 [Comparative Compound 2, 2-[{4-(3-hydroxypropoxy)-3-methylpyridin-2-yl}methylthio]-1H-benzimidazole, reference compound]
- MIC (H. pylori, ATCC 43504): 3 mg/L (≈ 9.11 µM)

SMILES: CC1(C)S[C@@H]2[C@H](NC(=O)[C@H](N)c3ccccc3)C(=O)N2[C@H]1C(=O)O [Control Drug 1 (Ampicillin), ampicillin, reference compound]
- MIC (H. pylori, ATCC 43504): 0.1 mg/L (≈ 0.286 µM)

SMILES: CN(C)[C@@H]1C(O)=C(C(N)=O)C(=O)[C@@]2(O)C(O)=C3C(=O)c4c(O)cccc4[C@@](C)(O)[C@H]3C[C@@H]12 [Control Drug 3 (Tetracycline), tetracycline, reference compound]
- MIC (H. pylori, ATCC 43504): 0.3 mg/L (≈ 0.675 µM)

SMILES: CC1COc2c(N3CCN(C)CC3)c(F)cc3c(=O)c(C(=O)O)cn1c23 (stereo not drawn) [Control Drug 4 (Ofloxacin), ofloxacin, reference compound]
- MIC (H. pylori NCTC 11916): 0.8 mg/L (≈ 2.21 µM)
- MIC (H. pylori NCTC 11637): 0.8 mg/L (≈ 2.21 µM)
- MIC (H. pylori, ATCC 43504): 1 mg/L (≈ 2.77 µM)
- MIC [3]: 25 mg/L (≈ 69.2 µM)
- MIC [4]: 2.5 mg/L (≈ 6.92 µM)
- MIC [5]: 2.5 mg/L (≈ 6.92 µM)
- MIC [6]: 0.8 mg/L (≈ 2.21 µM)
- MIC [7]: 0.8 mg/L (≈ 2.21 µM)
- MIC [8]: 0.4 mg/L (≈ 1.11 µM)

SMILES: Cc1c(OCCCCCO)ccnc1CSc1nc2ccccc2[nH]1 [Example 1, 2-[{4-(5-hydroxypentyloxy)-3-methylpyridin-2-yl}methylthio]-1H-benzimidazole]
- MIC (H. pylori NCTC 11916): 0.3 mg/L (≈ 0.839 µM)
- MIC (H. pylori NCTC 11637): 0.3 mg/L (≈ 0.839 µM)
- MIC (H. pylori, ATCC 43504): 0.3 mg/L (≈ 0.839 µM)
- MIC [3]: 0.3 mg/L (≈ 0.839 µM)
- MIC [4]: 0.2 mg/L (≈ 0.559 µM)
- MIC [5]: 0.3 mg/L (≈ 0.839 µM)
- MIC [9]: > 100 mg/L
- MIC [10]: > 100 mg/L
- MIC [11]: > 100 mg/L
- MIC [12]: > 100 mg/L
- MIC [13]: > 100 mg/L
- MIC [14]: > 100 mg/L
- MIC [15]: > 100 mg/L
- MIC [16]: > 100 mg/L
- MIC [17]: > 100 mg/L
- MIC [18]: > 100 mg/L
- MIC [19]: > 100 mg/L
- MIC [6]: 0.3 mg/L (≈ 0.839 µM)
- MIC [7]: 0.2 mg/L (≈ 0.559 µM)
- MIC [8]: 0.3 mg/L (≈ 0.839 µM)

SMILES: Cc1c(OCCCCCCO)ccnc1CSc1nc2ccccc2[nH]1 [Example 2, 2-[{4-(6-hydroxyhexyloxy)-3-methylpyridin-2-yl}methylthio]-1H-benzimidazole]
- MIC (H. pylori NCTC 11916): 0.1 mg/L (≈ 0.269 µM)
- MIC (H. pylori NCTC 11637): 0.1 mg/L (≈ 0.269 µM)
- MIC (H. pylori, ATCC 43504): 0.1 mg/L (≈ 0.269 µM)
- MIC [3]: 0.1 mg/L (≈ 0.269 µM)
- MIC [4]: 0.3 mg/L (≈ 0.808 µM)
- MIC [5]: 0.1 mg/L (≈ 0.269 µM)
- MIC [9]: > 100 mg/L
- MIC [10]: > 100 mg/L
- MIC [11]: > 100 mg/L
- MIC [12]: > 100 mg/L
- MIC [13]: > 100 mg/L
- MIC [14]: > 100 mg/L
- MIC [15]: > 100 mg/L
- MIC [16]: > 100 mg/L
- MIC [17]: > 100 mg/L
- MIC [18]: > 100 mg/L
- MIC [19]: > 100 mg/L
- MIC [6]: 0.1 mg/L (≈ 0.269 µM)
- MIC [7]: 0.1 mg/L (≈ 0.269 µM)
- MIC [8]: 0.3 mg/L (≈ 0.808 µM)

SMILES: CC[C@H]1OC(=O)[C@H](C)[C@@H](O[C@H]2C[C@@](C)(OC)[C@@H](O)[C@H](C)O2)[C@H](C)[C@@H](O[C@@H]2O[C@H](C)C[C@H](N(C)C)[C@H]2O)[C@](C)(O)C[C@@H](C)/C(=N\OCOCCOC)[C@H](C)[C@@H](O)[C@]1(C)O [RXM, roxithromycin, reference compound]
- MIC [1]: 0.2 mg/L (≈ 0.239 µM)
- MIC (H. pylori NCTC 11916): 0.1 mg/L (≈ 0.119 µM)
- MIC (H. pylori NCTC 11637): 0.2 mg/L (≈ 0.239 µM)
- MIC [2]: 0.1 mg/L (≈ 0.119 µM)
- MIC [3]: > 100 mg/L
- MIC [4]: > 100 mg/L
- MIC [5]: 3.5 mg/L (≈ 4.18 µM)
- MIC [6]: 0.2 mg/L (≈ 0.239 µM)
- MIC [7]: 0.4 mg/L (≈ 0.478 µM)
- MIC [8]: 0.2 mg/L (≈ 0.239 µM)
